Here are results for 28 molecules from PubChem BioAssay AID330 (DTP/NCI, 2004).

Molecules are shown by their SMILES. “And” between values parts separate entries of the source, which are not always exact repeats. Identical values can stand only once. Inconclusive results and toxic doses are left out.

For the test, the system named is P388 leukemia ip, CD2F1 mice, survival T/C. In words: NCI In Vivo Anticancer Drug Screen. Data for tumor model P388 Leukemia (intraperitoneal) in CD2F1 (CDF1) mice. Particulars: endpoint: median survival time, higher = longer survival. A digest of the protocol: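 Mice carrying the transplanted tumor received test compound or vehicle. Survival was recorded in each group, and the value is the treated-group measurement divided by that of the vehicle-treated control group.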

The mark [1] stands for this setting: dose: 50.0 mg/kg/injection, schedule: Q01DX009 (ip), vehicle: saline with Tween-80.
Setting [2] is: dose: 100.0 mg/kg/injection, schedule: Q01DX009 (ip), vehicle: saline with Tween-80.
The mark [3] stands for this setting: dose: 100.0 mg/kg/injection, schedule: Q01DX001 (ip), vehicle: Klucel (hydroxypropylcellulose) (HPC).
Where [4] appears, read: dose: 200.0 mg/kg/injection, schedule: Q01DX001 (ip), vehicle: Klucel (hydroxypropylcellulose) (HPC).
[5] abbreviates: dose: 50.0 mg/kg/injection, schedule: Q01DX005 (ip), vehicle: saline with Tween-80.
Setting [6] is: dose: 100.0 mg/kg/injection, schedule: Q01DX005 (ip), vehicle: saline with Tween-80.
The mark [7] stands for this setting: dose: 200.0 mg/kg/injection, schedule: Q01DX005 (ip), vehicle: saline with Tween-80.
[8] abbreviates: dose: 50.0 mg/kg/injection, schedule: Q01DX009 (ip), vehicle: saline.
[9] abbreviates: dose: 100.0 mg/kg/injection, schedule: Q01DX009 (ip), vehicle: saline.
Where [10] appears, read: dose: 200.0 mg/kg/injection, schedule: Q01DX009 (ip), vehicle: saline.
Where [11] appears, read: dose: 100.0 mg/kg/injection, schedule: Q04DX002 (ip), vehicle: saline with Tween-80.
[12] abbreviates: dose: 200.0 mg/kg/injection, schedule: Q04DX002 (ip), vehicle: saline with Tween-80.
The mark [13] stands for this setting: dose: 400.0 mg/kg/injection, schedule: Q04DX002 (ip), vehicle: saline with Tween-80.
The mark [14] stands for this setting: dose: 50.0 mg/kg/injection, schedule: Q01DX009 (ip), vehicle: Klucel (hydroxypropylcellulose) (HPC).
The mark [15] stands for this setting: dose: 100.0 mg/kg/injection, schedule: Q01DX009 (ip), vehicle: Klucel (hydroxypropylcellulose) (HPC).
The mark [16] stands for this setting: dose: 200.0 mg/kg/injection, schedule: Q01DX009 (ip), vehicle: Klucel (hydroxypropylcellulose) (HPC).
Setting [17] is: dose: 100.0 mg/kg/injection, schedule: Q04DX003 (ip), vehicle: saline.
[18] abbreviates: dose: 200.0 mg/kg/injection, schedule: Q04DX003 (ip), vehicle: saline.
Where [19] appears, read: dose: 50.0 mg/kg/injection, schedule: Q01DX005 (ip), vehicle: Klucel (hydroxypropylcellulose) (HPC).
[20] abbreviates: dose: 100.0 mg/kg/injection, schedule: Q01DX005 (ip), vehicle: Klucel (hydroxypropylcellulose) (HPC).
Where [21] appears, read: dose: 200.0 mg/kg/injection, schedule: Q01DX005 (ip), vehicle: Klucel (hydroxypropylcellulose) (HPC).

As for `N#Cc1cc(Cl)ccc1[N+](=O)[O-]`, the T/C under setting [1] was 102 % of control and the T/C under setting [2] was 103 % of control.
As for `COC1=CC(c2ccccc2)=N/C1=C/c1ccc[nH]1`, the T/C was 95 % of control (dose: 50.0 mg/kg/injection, schedule: Q01DX001 (ip), vehicle: Klucel (hydroxypropylcellulose) (HPC)); 100 % of control under setting [3]; 98 % of control under setting [4].
As to `CC[n+]1c([S-])nn(C)c1-c1cnccn1`, the T/C was 106 % of control under setting [5], 108 % of control under setting [6] and 102 % of control under setting [7].
With `Cc1ccccc1N=Nc1ccc(N=Nc2cc(CN(C)C)c(O)c3ncccc23)c(C)c1`, the T/C is, setting by setting: under setting [5], 102 % of control; under setting [6], 95 % of control; under setting [7], 109 % of control.
`CCCCCCCCCCCCCCCCOc1ccc(S(=O)(=O)N/N=c2/sc(-c3ccccc3Cl)nn2C)cc1C(=O)O`: the T/C was 100 % of control under setting [8], 100 % of control under setting [9] and 96 % of control under setting [10].
Consider `CNc1nc(OC)nc2c1cnn2C1CCCCO1` (centres undefined), for which the T/C runs as follows: under setting [11], 97 % of control; under setting [12], 100 % of control; under setting [13], 94 % of control.
In the case of `O=C(NN(c1ccccc1)c1ccccc1)c1ccccc1[N+](=O)[O-]`, the T/C runs as follows: under setting [1], 93 % of control; under setting [2], 104 % of control; (dose: 200.0 mg/kg/injection, schedule: Q01DX009 (ip), vehicle: saline with Tween-80) 93 % of control.
Take `CC1=NN(c2ccc(S(=O)(=O)O)cc2)C(=O)C1N=Nc1ccc(C)c(S(=O)(=O)Nc2ccccc2)c1` (centres undefined): the T/C is 101 % of control under setting [14], 99 % of control under setting [15] and 101 % of control under setting [16].
Regarding `O=c1ccc2c(O)c3ccoc3cc2o1`, the T/C was 101 % of control under setting [3]; 111 % of control under setting [4]; 106 % of control (dose: 400.0 mg/kg/injection, schedule: Q01DX001 (ip), vehicle: Klucel (hydroxypropylcellulose) (HPC)).
As for `Cc1ccc(NC(=O)CO)cc1Cl`, the T/C under setting [8] was 103 % of control, the T/C under setting [9] was 103 % of control and the T/C under setting [10] was 116 % of control.
`Cc1nccc2cccc(CNC(C)C)c12`: the T/C by setting is: (dose: 100.0 mg/kg/injection, schedule: Q01DX001 (ip), vehicle: saline) 103 % of control; (dose: 200.0 mg/kg/injection, schedule: Q01DX001 (ip), vehicle: saline) 100 % of control.
For `N#C/C(=C\c1ccc(Cl)cc1Cl)C(=O)N/N=C/c1ccc(Cl)cc1Cl`, the T/C is, setting by setting: under setting [17], 95 % of control; under setting [18], 97 % of control; (dose: 400.0 mg/kg/injection, schedule: Q04DX003 (ip), vehicle: saline) 90 % of control.
Take `Cc1cc(=O)[nH]c2c1C(=O)c1c(C)cc(=O)n(C)c1C2=O`: the T/C is, setting by setting: (dose: 0.5 mg/kg/injection, schedule: Q01DX009 (ip), vehicle: DMSO) 99 % of control and 97 % of control; (dose: 1.0 mg/kg/injection, schedule: Q01DX009 (ip), vehicle: DMSO) 90 % of control; (dose: 2.0 mg/kg/injection, schedule: Q01DX009 (ip), vehicle: DMSO) 91 % of control; (dose: 4.0 mg/kg/injection, schedule: Q01DX009 (ip), vehicle: DMSO) 108 % of control.
For the molecule `N=C=S.N=C=S.O=[N+]([O-])O.[Co+3].[NH2-].[NH2-].[NH2-].[NH2-]`, the T/C under setting [14] was 113 % of control.
Turning to `Cc1nc(C)n2cnnc2c1C`, the T/C reads like this: under setting [17], 96 % of control; under setting [18], 95 % of control.
Regarding `O=[N+]([O-])c1cccc(OCCOc2ccccc2)c1`, the T/C was 110 % of control (dose: 100.0 mg/kg/injection, schedule: Q01DX009 (ip), vehicle: other) and 105 % of control (dose: 200.0 mg/kg/injection, schedule: Q01DX009 (ip), vehicle: other).
As to `Nc1cc(O)c(O)c2c1C(=O)c1c(O)c(O)cc(N)c1C2=O`, the T/C by setting is: under setting [19], 102 % of control; under setting [20], 105 % of control; under setting [21], 99 % of control.
As for `CSc1ccc(NC(=S)SCc2ccc(Cl)cc2)cc1Cl`, the T/C was 108 % of control (dose: 50.0 mg/kg/injection, schedule: Q01DX009 (ip), vehicle: suspension in saline); 117 % of control (dose: 100.0 mg/kg/injection, schedule: Q01DX009 (ip), vehicle: suspension in saline); 116 % of control (dose: 200.0 mg/kg/injection, schedule: Q01DX009 (ip), vehicle: suspension in saline).
As for `O=[N+]([O-])c1ccc(SN2CCCCC2CC2CCCCC2)c([N+](=O)[O-])c1` (centres undefined), the T/C runs as follows: under setting [19], 105 % of control; under setting [20], 98 % of control; under setting [21], 96 % of control.
For `c1ccc2c(c1)OCc1nccn1-2`, the T/C was 99 % of control (dose: 60.0 mg/kg/injection, schedule: Q01DX005 (ip), vehicle: Klucel (hydroxypropylcellulose) (HPC)) and 100 % of control (dose: 120.0 mg/kg/injection, schedule: Q01DX005 (ip), vehicle: Klucel (hydroxypropylcellulose) (HPC)).
On to `CCOP(=O)(NCCCOC)OCC`, for which the T/C (dose: 25.0 mg/kg/injection, schedule: Q01DX005 (ip), vehicle: saline) is 97 % of control; the T/C (dose: 50.0 mg/kg/injection, schedule: Q01DX005 (ip), vehicle: saline) is 100 % of control; the T/C (dose: 100.0 mg/kg/injection, schedule: Q01DX005 (ip), vehicle: saline) was 99 % of control.
Consider `Clc1ccc(N=NN2CCc3ccccc3C2)cc1`, for which the T/C is 99 % of control under setting [14], 99 % of control under setting [15] and 93 % of control under setting [16].
Take `COC(=O)c1cc(OC(C)=O)c2cc3c(cc2c1-c1cc(OC)c(OC)c(OC)c1)OCO3`: the T/C was 93 % of control (dose: 100.0 mg/kg/injection, schedule: Q04DX003 (ip), vehicle: Klucel (hydroxypropylcellulose) (HPC)) and 89 % of control (dose: 200.0 mg/kg/injection, schedule: Q04DX003 (ip), vehicle: Klucel (hydroxypropylcellulose) (HPC)).
Take `CC1=C[P+](c2ccccc2)(c2ccccc2)C=C(c2ccccc2)O1`: the T/C by setting is: (dose: 3.12 mg/kg/injection, schedule: Q01DX005 (ip), vehicle: saline) 105 % of control; (dose: 6.25 mg/kg/injection, schedule: Q01DX005 (ip), vehicle: saline) 122 % of control and 123 % of control; (dose: 12.5 mg/kg/injection, schedule: Q01DX005 (ip), vehicle: saline) 118 % of control.
Turning to `CC(C)=CO[Si](C)(C)C`, the T/C reads like this: (dose: 50.0 mg/kg/injection, schedule: Q01DX009 (ip), vehicle: olive oil, sesame oil, peanut oil) 99 % of control; (dose: 100.0 mg/kg/injection, schedule: Q01DX009 (ip), vehicle: olive oil, sesame oil, peanut oil) 99 % of control; (dose: 200.0 mg/kg/injection, schedule: Q01DX009 (ip), vehicle: olive oil, sesame oil, peanut oil) 114 % of control.
`CCOc1ccc(N=Nc2c(O)n(-c3ccc(Br)cc3)c(=S)n(-c3ccc(OC)cc3)c2=O)cc1`: the T/C reads like this: under setting [11], 91 % of control; under setting [12], 91 % of control; under setting [13], 94 % of control.
For `CS(=O)(=O)OCCN(CCOS(C)(=O)=O)c1ccc(C=Nc2ccc3oc(=O)ccc3c2)cc1`, the T/C by setting is: under setting [1], 104 % of control; under setting [2], 113 % of control; (dose: 132.0 mg/kg/injection, schedule: Q04DX003 (ip), vehicle: saline with Tween-80) 150 % of control; (dose: 300.0 mg/kg/injection, schedule: Q04DX003 (ip), vehicle: saline with Tween-80) 122 % of control.
For the molecule `O=CCSC(=S)NNc1ccccc1`, the T/C (dose: 25.0 mg/kg/injection, schedule: Q01DX009 (ip), vehicle: saline) is 103 % of control; the T/C under setting [8] is 90 % of control; the T/C under setting [9] was 105 % of control; the T/C under setting [10] was 96 % of control.
